Measured values as given in US4304784A, “Composition and method for inhibiting platelet aggregation” (Takeda Chemical Industries, Ltd., priority 1978, dated 1981).
Like-named read-outs stand apart in the source and are kept apart here.

Experiments:
[1] = system: primary aggregation of platelets by ADP; test: Inhibitory activity to the (primary) platelet aggregation induced by ADP, aggregation meter, rat PRP; format: cell-based; conditions: average of 5 cases
Protocol: (a) Inhibitory activity to the platelet aggregation induced by ADP (adenosine diphosphate)
(§1) With a siliconized injection syringe wetted with heparin, a blood sample was taken from the descending artery of a rat and centrifuged at 4° C. and 1,000 r.p.m. for 10 minutes to obtain a platelet-rich plasma (PRP). The test drug solutions were prepared as follows. The test drug was dissolved in 0.02 M Tris-HCl buffer containing 1% of dimethylformamide and isotonicated with sodium (pH 7.4). To 0.4 ml of the above PRP was added 3.0 ml of the test drug solution, followed by the addition of 0.1 ml of 10^-4 M ADP. The resultant aggregation of platelets was measured with an aggregation meter [Nippon Bunko Medical K.K.]. The activity of the test drug was first assayed by determining the primary aggregation inhibitory effect in terms of inhibition rate (%) in relation to the maximum light transmittance of control PRP which is altered by ADP.
The inhibition rates shown are each an average of 5 cases.

[2] = system: ADP-induced platelet aggregation; test: Inhibitory activity to the ADP-induced platelet aggregation measured by the platelet-counting-method, rat PRP; format: cell-based; conditions: platelet counting (Coulter Counter)
Protocol: (b) Inhibitory activity to the ADP-induced platelet aggregation measured by the platelet-counting-method.
The test drug was dissolved in Na-isotonic 0.02 M Tris-HCl buffer (pH 7.4) containing 1% of dimethylformamide and to 1.5 ml of the test drug solution was added 0.5 ml of the rat-PRP. The mixture was incubated at 37° C. for one minute, followed by the addition of 1 ml of 5×10^-5 M-ADP-physiological saline, and further incubated for 45 seconds. To the solvent as mentioned above was added rat-PRP of the same volume as above. The mixture was incubated at 37° C. for one minute, which was used as the control preparation.
The rate of non-aggregation (inhibitory rate of aggregation) was assayed against the control by counting the number of the platelets in each sample as a single platelet by means of Coulter Counter and by determining the number of the platelets after the addition of ADP as non-aggregated platelets.

[3] = system: platelet aggregation by ADP; test: Platelet aggregation inhibitory activity after oral administration to rats (blood sampled one hour after dosing); format: in vivo; conditions: rat
Protocol: as §1
(2) The platelet aggregation inhibitory activity of Compound (I) (oral administration)
In one hour after oral administration of the test drug to rats, a blood sample was taken from each of the tested rats and the inhibition rate was assayed in accordance with the procedure as mentioned above (1)-a).

mice = conditions: mouse, in vivo
Excerpt: (3) The toxicity of compound (I)

[4] = system: thrombocyte (platelet) aggregation; test: Inhibition activity of platelet aggregation in mammalian blood (general statement)

Row | SMILES | Rate of inhibition of the primary aggregation of platelets by ADP ([1]; 0.5 × 10^-4 mol. conc.) [%] | Rate of inhibition of the primary aggregation of platelets by ADP ([1]; 0.75 × 10^-4 mol. conc.) [%] | Rate of inhibition of the primary aggregation of platelets by ADP ([1]; 1.0 × 10^-4 mol. conc.) [%] | Rate of inhibition of the primary aggregation of platelets by ADP ([1]; 2.5 × 10^-4 mol. conc.) [%] | Rate of inhibition of the primary aggregation of platelets by ADP ([1]; 5.0 × 10^-4 mol. conc.) [%] | Rate of inhibition of the aggregation ([2]; 0.5 × 10^-4 mol. conc.) [%] | Rate of inhibition of the aggregation ([2]; 1 × 10^-4 mol. conc.) [%] | Rate of inhibition of the aggregation ([2]; 5 × 10^-4 mol. conc.) [%] | Rate of inhibition of the platelet aggregation by ADP ([3]; 5 mg/kg body weight) [%] | Rate of inhibition of the platelet aggregation by ADP ([3]; 10 mg/kg body weight) [%] | Rate of inhibition of the platelet aggregation by ADP ([3]; 25 mg/kg body weight) [%] | Rate of inhibition of the platelet aggregation by ADP ([3]; 50 mg/kg body weight) [%] | toxic reactions (mice; ip, 100 mg/kg) | toxic reactions (mice; po, 300 mg/kg) | inhibition activity of thrombocyte (platelet) aggregation [4] | Rate of inhibition of the platelet aggregation by ADP ([3]; 100 mg/kg body weight) [%]
1 | O=C1c2ccccc2SC12CC2 [Compound (I), 3-oxo-2,3-dihydro[1]benzothiophene-2-spirocyclopropane] | 10.9 | 52.4 | 82.3 | 96.9 | 97.7 | 13.02 ± 2.20 | 16.09 ± 3.14 | 80.98 ± 2.92 | -3.6 | 12.7 | 20.0 | 21.9 | nor was any toxic reaction noted | No toxic reactions were elicited | strong inhibition activity | 
2 | CCOC(=O)COc1ccc2c(C)c(CCN(CC)CC)c(=O)oc2c1 [Carbochromen] |  |  |  |  |  | 5.12 ± 2.20 | 12.75 ± 2.26 | 15.95 ± 1.87 |  |  |  |  |  |  |  | 
3 | COc1ccc2c(c1)c(CC(=O)O)c(C)n2C(=O)c1ccc(Cl)cc1 [Indomethacin] |  |  | 8.0 | 31.5 | 71.4 | 8.18 ± 2.21 | 0.85 ± 0.20 | 64.66 ± 1.76 | 12.5 | 12.4 | 11.2 |  |  |  |  | 
4 | CC(C(=O)O)c1cccc(C(=O)c2ccccc2)c1 (centres unmarked) [Ketoprofen] |  |  | 19.6 | 36.0 | 71.5 |  |  |  |  | 7.2 | 13.5 | 18.6 |  |  |  | 
5 | CC(=O)Oc1ccccc1C(=O)O [Aspirin] |  |  | 10.6 | 28.8 | 60.4 | 6.51 ± 1.86 | -15.81 ± 5.65 | -7.11 ± 0.98 |  |  |  | 0 |  |  |  | 4.3
